Values quoted from earlier work in patent EP0277754A1, “Method involving propylene amine oxime complexes” (AMERSHAM INTERNATIONAL plc, priority 1987, dated 1988).

- retention in human brain: retained only to a small extent
Structure (SMILES): CC(=NO)C(C)(C)NCCCNC(C)(C)C(C)=NO [PnAO]
